Data set [1] concerns the target enzymes (Bioprint panel) (Mus musculus, UniProt P29477). Kind of data set: biochemical. The settings on record: inducible NOS; read-out: Reference Compound IC50.
In data set [2] the test system is IL-17A secretion from human PBMC stimulated with antiCD3/antiCD28-coated beads. The note with it: assay description, reference compound, cited from earlier work.
In data set [3] the target is T1, enzymes (Bioprint panel).
T1 construct: other: ATPase (Na+/K+); 10 μM
The data set can be described thus: biochemical. The note with it: read-out: Reference Compound IC50.

For data set [4], the target named is receptors (Bioprint panel) (Homo sapiens, UniProt P14867). Kind of data set: biochemical. Format: binding.
For data set [5], the target named is receptors (Bioprint panel) (Homo sapiens, UniProt P41597). The data set can be described thus: biochemical. Format: binding. The settings on record: CHEMOKINES CCR2 (h) (agonist radioligand); read-out: Reference Compound IC50.
For the next data set, the system named is HREC. The data set can be described thus: OncoPanel normal cell proliferation assay (3-day). Format: cell-based. The settings on record: 72 h, renal mixed epithelial, 3-day incubation.
The next data set relates to HMEC. Kind of data set: OncoPanel normal cell proliferation assay (3-day). Format: cell-based.
Another data set concerns CCD 841 CoN. The data set can be described thus: OncoPanel normal cell proliferation assay (3-day). The class given is cell-based. The note with it: Homo sapiens, 72 h, colon epithelial, 3-day incubation.
In a further data set the test system is Wi38. The data set can be described thus: OncoPanel normal cell proliferation assay (3-day). The note with it: Homo sapiens, WI-38, 72 h, Wi38, lung fibroblast, 3-day incubation. The class given is cell-based.
The subject of data set [6] is 4 normal cell types, CCD 841 CoN, HMEC, HREC and Wi38. Kind of data set: OncoPanel normal cell proliferation assay (3-day), panel. The settings on record: the other three cell lines (CCD 841 CoN, HREC, Wi38). Format: cell-based.
The target in data set [7] is receptors (Bioprint panel) (Homo sapiens, UniProt Q9GZV3). The data set can be described thus: biochemical. The class given is binding. The note with it: choline transporter (CHT1) (h) (antagonist radioligand); read-out: Reference Compound IC50.
Data set [8] concerns the target receptors (Bioprint panel) (Homo sapiens, UniProt P28335). Kind of data set: biochemical. The note with it: read-out: Reference Compound IC50. Format: binding.
For data set [9], the target named is receptors (Bioprint panel) (Homo sapiens, UniProt P41595). Kind of data set: biochemical. Format: binding. The note with it: read-out: Reference Compound IC50.
The target of data set [10] is T2, enzymes (Bioprint panel) (UniProt A0ABM2YAB8).
T2 construct: other: MT3 (ML2) (agonist radioligand); 10 μM
The data set can be described thus: biochemical. The note with it: read-out: Reference Compound IC50.

In data set [11] the target is receptors (Bioprint panel) (Homo sapiens, UniProt Q9H3N8). Kind of data set: biochemical. The settings on record: read-out: Reference Compound IC50. The class given is binding.
The next data set addresses T3, WHSC1(h) (NSD2(h)) (Homo sapiens, UniProt O96028).
T3 sequence (O96028 1-1365): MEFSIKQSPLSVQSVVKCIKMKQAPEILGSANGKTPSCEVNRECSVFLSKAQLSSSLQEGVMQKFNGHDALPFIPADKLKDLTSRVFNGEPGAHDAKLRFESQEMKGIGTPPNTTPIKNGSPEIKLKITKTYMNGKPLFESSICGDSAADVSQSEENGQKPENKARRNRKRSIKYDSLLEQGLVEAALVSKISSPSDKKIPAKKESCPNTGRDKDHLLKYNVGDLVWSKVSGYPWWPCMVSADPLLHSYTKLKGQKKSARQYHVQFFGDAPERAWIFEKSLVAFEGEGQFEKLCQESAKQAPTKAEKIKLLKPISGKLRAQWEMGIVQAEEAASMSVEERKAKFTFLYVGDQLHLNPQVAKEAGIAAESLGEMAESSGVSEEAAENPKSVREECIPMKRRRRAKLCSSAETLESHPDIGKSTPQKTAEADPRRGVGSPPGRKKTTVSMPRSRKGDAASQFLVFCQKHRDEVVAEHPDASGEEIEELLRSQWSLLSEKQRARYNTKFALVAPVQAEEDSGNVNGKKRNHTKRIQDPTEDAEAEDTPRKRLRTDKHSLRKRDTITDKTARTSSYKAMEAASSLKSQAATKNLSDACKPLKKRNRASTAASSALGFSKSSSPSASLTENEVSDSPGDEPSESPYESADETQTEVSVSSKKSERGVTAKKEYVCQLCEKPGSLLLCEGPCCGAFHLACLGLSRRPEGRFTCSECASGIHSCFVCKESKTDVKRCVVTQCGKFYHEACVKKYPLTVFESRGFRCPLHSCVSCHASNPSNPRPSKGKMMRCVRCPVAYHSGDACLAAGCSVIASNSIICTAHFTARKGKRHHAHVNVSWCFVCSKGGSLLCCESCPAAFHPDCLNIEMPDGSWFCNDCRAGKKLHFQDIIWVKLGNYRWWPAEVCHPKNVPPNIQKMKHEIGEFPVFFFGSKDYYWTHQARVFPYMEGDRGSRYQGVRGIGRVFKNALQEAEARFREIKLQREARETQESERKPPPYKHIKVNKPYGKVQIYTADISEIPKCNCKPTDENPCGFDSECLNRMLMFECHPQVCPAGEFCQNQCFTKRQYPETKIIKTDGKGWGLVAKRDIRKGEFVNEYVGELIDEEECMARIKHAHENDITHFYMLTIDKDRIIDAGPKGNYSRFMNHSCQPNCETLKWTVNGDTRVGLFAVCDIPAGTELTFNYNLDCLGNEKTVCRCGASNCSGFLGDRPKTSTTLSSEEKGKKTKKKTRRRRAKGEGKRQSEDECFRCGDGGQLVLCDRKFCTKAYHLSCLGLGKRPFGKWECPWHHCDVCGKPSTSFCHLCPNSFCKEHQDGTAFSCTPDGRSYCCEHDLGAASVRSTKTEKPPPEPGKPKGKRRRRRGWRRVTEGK
Kind of data set: Epigenetic enzyme assay, Methyltransferases (MTs). The class given is biochemical. The note with it: Table 10; read-out: Reference IC50.

Another data set concerns the target NSD1 (h) (Homo sapiens, UniProt Q96L73). Kind of data set: Epigenetic enzyme assay, Methyltransferases (MTs). The class given is biochemical.
The target of data set [12] is enzymes (Bioprint panel). Kind of data set: biochemical. The settings on record: COMT (catechol- O-methyl transferase); read-out: Reference Compound IC50.
Data set [13] concerns the target T4, BRD3(2) (h) bromodomain (Homo sapiens, UniProt Q15059).
T4 construct: Bromodomain
Kind of data set: Epigenetic binding assay, Bromodomain. The settings on record: Table 4; read-out: Reference IC50.

Data set [14] has as its target T4, BRD3(2) (h) bromodomain. The note with it: ligand biotin-H4 di acetyl Lys 5/8 100 nM; 30 min/RT; AlphaScreen; read-out: Reference IC50; cited from earlier work.
In data set [15] the target is receptors (Bioprint panel) (Homo sapiens, UniProt P35348). The data set can be described thus: biochemical. Format: binding. The note with it: read-out: Reference Compound IC50.
For data set [16], the target named is CYP2B6 (Bupropion Substrate) (Homo sapiens, UniProt P20813). Kind of data set: Cytochrome P450 Inhibition (CYP panel).
The target of data set [17] is T5, enzymes (Bioprint panel) (Homo sapiens, UniProt O00408).
T5 construct: other: PDE2A1 (h); 10 μM; PDE2A1 (h)
The data set can be described thus: biochemical. The note with it: PDE2A1 (h); read-out: Reference Compound IC50.

In another data set the target is Lipid Peroxidase. The data set can be described thus: Lipid Peroxidase. Format: biochemical, Dunkin Hartley Guinea pig. The note with it: concentration-response 10 to 0.01 μM.

Like-named read-outs stand apart in the source and are kept apart here. Where only a bound is given, the exact number is not on record here.

As a reminder, the IC50 is the midpoint of a concentration-inhibition curve. What is called EC50 is the concentration giving half of the maximal effect. One may read the GI50 as the concentration at which growth is held to half of that of the control.

T4 sequence (Q15059 306-415 limits assumed): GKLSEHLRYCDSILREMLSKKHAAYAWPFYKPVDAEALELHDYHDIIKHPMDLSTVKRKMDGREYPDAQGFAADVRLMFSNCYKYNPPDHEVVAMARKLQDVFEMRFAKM
NSD1 (h), sequence (Q96L73 whole entry): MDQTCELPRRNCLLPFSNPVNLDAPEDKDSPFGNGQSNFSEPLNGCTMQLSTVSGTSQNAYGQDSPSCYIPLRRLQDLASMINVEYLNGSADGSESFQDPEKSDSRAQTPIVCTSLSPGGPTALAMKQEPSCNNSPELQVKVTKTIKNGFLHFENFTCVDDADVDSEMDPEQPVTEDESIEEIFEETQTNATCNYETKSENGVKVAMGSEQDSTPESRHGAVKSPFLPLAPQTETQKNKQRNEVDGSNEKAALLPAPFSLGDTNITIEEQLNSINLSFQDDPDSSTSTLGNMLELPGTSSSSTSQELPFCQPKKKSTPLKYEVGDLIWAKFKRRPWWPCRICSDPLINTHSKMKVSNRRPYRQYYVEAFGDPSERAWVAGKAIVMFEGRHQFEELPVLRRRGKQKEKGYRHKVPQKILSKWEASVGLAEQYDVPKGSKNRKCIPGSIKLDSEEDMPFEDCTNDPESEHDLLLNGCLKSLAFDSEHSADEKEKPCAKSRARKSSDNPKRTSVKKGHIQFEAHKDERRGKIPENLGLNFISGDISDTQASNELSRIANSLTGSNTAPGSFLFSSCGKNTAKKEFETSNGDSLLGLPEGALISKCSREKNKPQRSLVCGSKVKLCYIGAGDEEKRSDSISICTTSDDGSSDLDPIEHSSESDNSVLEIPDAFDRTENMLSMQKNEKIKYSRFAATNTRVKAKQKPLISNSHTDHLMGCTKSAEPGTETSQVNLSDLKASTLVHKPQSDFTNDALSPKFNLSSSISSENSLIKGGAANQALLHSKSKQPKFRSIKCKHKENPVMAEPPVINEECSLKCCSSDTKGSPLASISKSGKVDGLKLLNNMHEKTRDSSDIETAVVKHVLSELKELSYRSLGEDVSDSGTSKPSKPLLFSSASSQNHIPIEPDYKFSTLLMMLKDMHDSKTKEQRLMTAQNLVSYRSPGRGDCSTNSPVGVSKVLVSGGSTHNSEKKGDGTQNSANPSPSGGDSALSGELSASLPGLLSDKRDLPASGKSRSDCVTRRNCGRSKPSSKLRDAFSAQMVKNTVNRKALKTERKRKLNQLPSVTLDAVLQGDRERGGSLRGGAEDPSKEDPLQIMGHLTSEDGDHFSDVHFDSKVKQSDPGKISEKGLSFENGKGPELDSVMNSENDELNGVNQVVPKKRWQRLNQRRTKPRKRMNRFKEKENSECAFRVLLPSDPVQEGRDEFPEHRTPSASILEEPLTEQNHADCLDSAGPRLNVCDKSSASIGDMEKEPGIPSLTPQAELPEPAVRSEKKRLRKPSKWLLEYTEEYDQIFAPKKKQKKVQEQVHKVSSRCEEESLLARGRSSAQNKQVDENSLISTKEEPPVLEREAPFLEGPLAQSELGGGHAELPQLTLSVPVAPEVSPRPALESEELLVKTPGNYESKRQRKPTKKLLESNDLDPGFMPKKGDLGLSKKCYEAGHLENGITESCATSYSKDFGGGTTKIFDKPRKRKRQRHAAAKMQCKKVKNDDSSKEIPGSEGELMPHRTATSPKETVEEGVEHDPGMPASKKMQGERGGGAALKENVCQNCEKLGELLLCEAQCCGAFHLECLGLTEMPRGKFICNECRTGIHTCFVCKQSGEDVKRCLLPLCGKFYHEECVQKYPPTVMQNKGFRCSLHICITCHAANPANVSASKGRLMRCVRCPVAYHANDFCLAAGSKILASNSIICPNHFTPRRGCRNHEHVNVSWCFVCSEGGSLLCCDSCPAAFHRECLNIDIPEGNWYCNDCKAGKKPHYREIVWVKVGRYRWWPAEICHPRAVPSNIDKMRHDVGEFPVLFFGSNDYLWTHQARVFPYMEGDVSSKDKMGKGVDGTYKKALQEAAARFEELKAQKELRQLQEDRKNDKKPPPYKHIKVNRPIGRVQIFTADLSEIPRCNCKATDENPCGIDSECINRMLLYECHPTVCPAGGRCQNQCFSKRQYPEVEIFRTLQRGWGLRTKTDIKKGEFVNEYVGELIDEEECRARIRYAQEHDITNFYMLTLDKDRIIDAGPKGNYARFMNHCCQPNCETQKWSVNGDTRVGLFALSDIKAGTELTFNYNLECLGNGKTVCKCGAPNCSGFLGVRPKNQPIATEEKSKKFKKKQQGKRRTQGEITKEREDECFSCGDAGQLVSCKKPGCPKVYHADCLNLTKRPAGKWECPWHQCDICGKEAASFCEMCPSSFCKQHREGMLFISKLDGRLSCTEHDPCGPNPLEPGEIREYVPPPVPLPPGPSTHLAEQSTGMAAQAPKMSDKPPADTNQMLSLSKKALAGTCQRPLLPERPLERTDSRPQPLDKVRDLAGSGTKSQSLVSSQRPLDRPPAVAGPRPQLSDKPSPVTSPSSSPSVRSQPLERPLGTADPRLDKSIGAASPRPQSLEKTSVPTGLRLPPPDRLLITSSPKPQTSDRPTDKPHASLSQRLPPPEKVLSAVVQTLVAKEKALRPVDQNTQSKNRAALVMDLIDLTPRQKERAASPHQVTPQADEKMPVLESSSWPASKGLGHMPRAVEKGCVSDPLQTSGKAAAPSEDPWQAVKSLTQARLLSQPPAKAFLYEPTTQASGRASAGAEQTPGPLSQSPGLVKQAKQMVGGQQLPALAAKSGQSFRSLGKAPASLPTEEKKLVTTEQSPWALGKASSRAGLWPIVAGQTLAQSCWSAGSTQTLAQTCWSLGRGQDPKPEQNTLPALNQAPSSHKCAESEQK
receptors (Bioprint panel) (Homo sapiens, UniProt P28335), sequence (P28335 33-458): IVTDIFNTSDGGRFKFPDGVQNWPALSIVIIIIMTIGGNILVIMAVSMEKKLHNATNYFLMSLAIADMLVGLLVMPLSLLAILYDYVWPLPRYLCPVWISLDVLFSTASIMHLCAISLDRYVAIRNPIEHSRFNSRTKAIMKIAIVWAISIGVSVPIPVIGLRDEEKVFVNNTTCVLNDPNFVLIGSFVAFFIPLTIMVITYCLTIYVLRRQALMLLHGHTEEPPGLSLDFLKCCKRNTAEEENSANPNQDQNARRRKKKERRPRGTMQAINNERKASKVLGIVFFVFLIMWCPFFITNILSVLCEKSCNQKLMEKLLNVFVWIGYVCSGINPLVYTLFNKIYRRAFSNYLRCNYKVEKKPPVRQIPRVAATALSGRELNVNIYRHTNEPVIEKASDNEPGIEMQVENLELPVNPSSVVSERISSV
T2 sequence (A0ABM2YAB8 entry or part of it): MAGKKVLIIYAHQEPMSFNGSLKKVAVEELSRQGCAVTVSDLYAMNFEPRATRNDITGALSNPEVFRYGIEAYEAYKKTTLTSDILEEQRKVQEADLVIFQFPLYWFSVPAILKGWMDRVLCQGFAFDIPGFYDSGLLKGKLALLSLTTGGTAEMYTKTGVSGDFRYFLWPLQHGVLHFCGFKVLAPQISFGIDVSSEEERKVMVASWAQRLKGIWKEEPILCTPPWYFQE
receptors (Bioprint panel) (Homo sapiens, UniProt P41595), sequence (P41595 whole entry): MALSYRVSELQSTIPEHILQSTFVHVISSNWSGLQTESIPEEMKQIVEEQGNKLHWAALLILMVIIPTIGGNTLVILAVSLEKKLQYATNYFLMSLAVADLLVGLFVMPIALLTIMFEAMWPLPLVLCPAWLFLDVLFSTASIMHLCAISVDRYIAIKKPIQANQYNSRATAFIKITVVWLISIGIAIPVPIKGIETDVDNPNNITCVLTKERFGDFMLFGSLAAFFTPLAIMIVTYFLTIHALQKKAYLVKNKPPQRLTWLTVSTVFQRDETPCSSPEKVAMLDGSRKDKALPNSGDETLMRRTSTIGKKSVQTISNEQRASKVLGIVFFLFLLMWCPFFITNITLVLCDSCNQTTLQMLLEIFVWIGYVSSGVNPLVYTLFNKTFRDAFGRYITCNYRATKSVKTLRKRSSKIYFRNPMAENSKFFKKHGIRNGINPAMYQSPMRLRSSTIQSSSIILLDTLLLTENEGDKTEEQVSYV
receptors (Bioprint panel) (Homo sapiens, UniProt Q9GZV3), sequence (Q9GZV3 whole entry): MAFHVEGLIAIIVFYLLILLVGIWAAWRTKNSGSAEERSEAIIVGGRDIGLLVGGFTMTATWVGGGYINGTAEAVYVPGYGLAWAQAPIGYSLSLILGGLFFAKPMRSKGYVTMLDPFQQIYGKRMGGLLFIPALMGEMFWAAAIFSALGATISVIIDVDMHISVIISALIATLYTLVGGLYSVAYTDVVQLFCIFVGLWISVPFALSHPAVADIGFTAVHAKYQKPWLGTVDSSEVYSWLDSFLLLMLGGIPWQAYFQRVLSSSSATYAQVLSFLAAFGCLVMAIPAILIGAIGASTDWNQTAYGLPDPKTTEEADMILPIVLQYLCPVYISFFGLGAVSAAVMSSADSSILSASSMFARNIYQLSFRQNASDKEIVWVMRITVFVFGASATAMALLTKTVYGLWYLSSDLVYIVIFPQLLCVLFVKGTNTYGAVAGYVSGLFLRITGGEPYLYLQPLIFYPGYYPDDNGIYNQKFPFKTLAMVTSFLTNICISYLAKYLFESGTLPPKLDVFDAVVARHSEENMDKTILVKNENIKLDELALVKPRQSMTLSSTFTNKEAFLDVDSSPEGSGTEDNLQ
CYP2B6 (Bupropion Substrate), sequence (P20813 whole entry): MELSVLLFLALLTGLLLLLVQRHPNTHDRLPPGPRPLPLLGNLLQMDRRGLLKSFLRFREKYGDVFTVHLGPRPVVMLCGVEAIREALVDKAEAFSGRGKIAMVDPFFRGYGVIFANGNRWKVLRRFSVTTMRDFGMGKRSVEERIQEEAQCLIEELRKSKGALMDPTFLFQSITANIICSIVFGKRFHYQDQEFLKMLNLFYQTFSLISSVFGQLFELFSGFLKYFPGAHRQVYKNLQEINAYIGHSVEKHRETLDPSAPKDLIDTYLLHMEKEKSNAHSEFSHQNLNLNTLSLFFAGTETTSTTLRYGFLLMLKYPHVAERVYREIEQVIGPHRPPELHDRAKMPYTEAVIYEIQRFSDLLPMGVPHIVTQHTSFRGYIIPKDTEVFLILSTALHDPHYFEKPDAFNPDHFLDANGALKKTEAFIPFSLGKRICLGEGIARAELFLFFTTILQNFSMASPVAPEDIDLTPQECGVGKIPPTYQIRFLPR

With `CC(=N)NCc1cccc(CN)c1` [1400 W], the IC50 at enzymes (Bioprint panel) [1] came out at 29 nM.

`C=CC[C@@H]1/C=C(\C)C[C@H](C)C[C@H](OC)[C@H]2O[C@@](O)(C(=O)C(=O)N3CCCC[C@H]3C(=O)O[C@H](/C(C)=C/[C@@H]3CC[C@@H](O)[C@H](OC)C3)[C@H](C)[C@@H](O)CC1=O)[C@H](C)C[C@@H]2OC` [Tacrolimus]: the “Emax (plateau of the fitted curve), IL-17A release” value in [2] is “approximately 90%”. Moreover, in data set [2] (read-out: EC50, inhibition of IL-17A release), the half-maximal effective concentration (EC50) is about 0.34 nM.

Take `C[C@@H]1O[C@@H](O[C@H]2C[C@@H](O)[C@]3(CO)[C@H]4[C@H](O)C[C@]5(C)[C@@H](C6=CC(=O)OC6)CC[C@]5(O)[C@@H]4CC[C@]3(O)C2)[C@H](O)[C@H](O)[C@H]1O` [ouabain]: at enzymes (Bioprint panel) [3], the 50% inhibitory concentration (IC50) stood at 250 nM.

Compound `NCc1cc(=O)[nH]o1` [muscimol] yielded an IC50 in data set [4] of 53 nM.

In the case of MCP-1, in [5], the half-maximal inhibitory concentration (IC50) worked out at 0.087 nM.

Turning to `CC(=O)O[C@H]1C(=O)[C@@]2(C)[C@H]([C@H](OC(=O)c3ccccc3)[C@]3(O)C[C@H](OC(=O)[C@H](O)[C@@H](NC(=O)c4ccccc4)c4ccccc4)C(C)=C1C3(C)C)[C@]1(OC(C)=O)CO[C@@H]1C[C@@H]2O` [Paclitaxel, paclitaxel], the 50% effective concentration (EC50) is 1.72 nM in the data set on HREC (read-out: Cell Count EC50); over 30000 nM in the data set with HMEC (Homo sapiens, 72 h, HMEC, mammary epithelial, 3-day incubation, read-out: Cell Count EC50); 11.9 nM with CCD 841 CoN (read-out: Cell Count EC50); 3.9 nM in the data set on Wi38 (read-out: Cell Count EC50). The concentration for 50% growth inhibition (GI50) in the data set on HREC (read-out: Cell Count GI50) was 1.6 nM; in the data set with HMEC (Homo sapiens, 72 h, HMEC, mammary epithelial, 3-day incubation, read-out: Cell Count GI50), over 30000 nM; with CCD 841 CoN (read-out: Cell Count GI50), 22.1 nM; in the data set on Wi38 (read-out: Cell Count GI50), 3.6 nM. Moreover, the IC50 is 48.4 nM in the data set with HREC (read-out: Cell Count IC50); over 30000 nM in the data set with HMEC (Homo sapiens, 72 h, HMEC, mammary epithelial, 3-day incubation, read-out: Cell Count IC50); 9.41 nM in the data set with Wi38 (read-out: Cell Count IC50). The results for the “toxicity towards normal cells” value (with HMEC; in [6]) were “low toxicity” and “high toxicity”, respectively.

With `C[N+]1(C)CCOC(O)(c2ccc(-c3ccc(C4(O)C[N+](C)(C)CCO4)cc3)cc2)C1` (stereo not shown) [hemicholinium-3], the IC50 in [7] was determined as 4.6 nM.

`COc1cc(CC(C)N)c(OC)cc1I` (racemic) [(±)DOI]: the IC50 in data set [8] was 0.24 nM; in [9], 6.7 nM.

For the compound `COc1ccc2[nH]cc(CCNC(C)=O)c2c1` [melatonin], the concentration for half-maximal inhibition (IC50) on enzymes (Bioprint panel) [10] turned out to be 160 nM.

For the compound `N=C(N)SCCc1cnc[nH]1` [imetit], the 50% inhibitory concentration (IC50) in data set [11] was 4.7 nM.

Turning to `CN1C(=O)[C@@]23C[C@]4([C@]56C[C@@]78SS[C@@](CO)(C(=O)N7[C@H]5Nc5ccccc56)N(C)C8=O)c5ccccc5N[C@@H]4N2C(=O)[C@]1(CO)SS3` [chaetocin, reference compound], the IC50 on WHSC1(h) (NSD2(h)) worked out at 480 nM; on NSD1 (h) (Table 10, read-out: Reference IC50), 130 nM; at NSD1 (h) (Table 11, inhibition/concentration-response curve, read-out: IC50) it was 240 nM.

As for `O=C(c1cc(O)c(O)c([N+](=O)[O-])c1)c1ccccc1F` [Ro 41-0960], the IC50 at enzymes (Bioprint panel) [12] was 61 nM.

On to `COc1ccccc1S(=O)(=O)Nc1ccc2c(c1)CN(C)C(=O)N2` [PFI-1, reference compound], for which the half-inhibitory concentration (IC50) at BRD3(2) (h) bromodomain [13] and at BRD3(2) (h) bromodomain [14] was 790 nM throughout.

Take `COc1cccc(OC)c1OCCNCC1COc2ccccc2O1` (stereo not shown) [WB 4101]: in data set [15], the IC50 was found to be 0.27 nM.

With `COC(=O)[C@H](c1ccccc1Cl)N1CCc2sccc2C1` [clopidogrel, reference compound], the 50% inhibitory concentration (IC50) in data set [16] was found to be 390 nM.

For the compound `CCCCCC[C@@H]([C@@H](C)O)n1cnc2c(N)ncnc21` (racemic) [EHNA], the IC50 at enzymes (Bioprint panel) [17] turned out to be 1200 nM.

Compound `CCCOC(=O)c1cc(O)c(O)c(O)c1` [N-Propyl Gallate, reference compound] yielded an IC50 at Lipid Peroxidase of 206000 nM.

Source of the values: US11331299B2, “Medicinal use of serrulatane diterpenes” (The University of Sydney, priority 2016, dated 2022).
